Key:
human SLC6A19 and TMEM27 [1] = target: T1, human SLC6A19 and TMEM27 (Homo sapiens, UniProt Q695T7); test: Radiolabelled (3H) leucine uptake in CHO cells with doxycycline-inducible expression of human SLC6A19 and TMEM27 (Example B-1); format: cell-based; settings: CHO cells with doxycycline-inducible expression of human SLC6A19 and TMEM27, read-out: SLC6A19_Radioligand Uptake Assay IC50
T1 construct: expressed in transfected cells
T1 sequence (Q695T7 1-634): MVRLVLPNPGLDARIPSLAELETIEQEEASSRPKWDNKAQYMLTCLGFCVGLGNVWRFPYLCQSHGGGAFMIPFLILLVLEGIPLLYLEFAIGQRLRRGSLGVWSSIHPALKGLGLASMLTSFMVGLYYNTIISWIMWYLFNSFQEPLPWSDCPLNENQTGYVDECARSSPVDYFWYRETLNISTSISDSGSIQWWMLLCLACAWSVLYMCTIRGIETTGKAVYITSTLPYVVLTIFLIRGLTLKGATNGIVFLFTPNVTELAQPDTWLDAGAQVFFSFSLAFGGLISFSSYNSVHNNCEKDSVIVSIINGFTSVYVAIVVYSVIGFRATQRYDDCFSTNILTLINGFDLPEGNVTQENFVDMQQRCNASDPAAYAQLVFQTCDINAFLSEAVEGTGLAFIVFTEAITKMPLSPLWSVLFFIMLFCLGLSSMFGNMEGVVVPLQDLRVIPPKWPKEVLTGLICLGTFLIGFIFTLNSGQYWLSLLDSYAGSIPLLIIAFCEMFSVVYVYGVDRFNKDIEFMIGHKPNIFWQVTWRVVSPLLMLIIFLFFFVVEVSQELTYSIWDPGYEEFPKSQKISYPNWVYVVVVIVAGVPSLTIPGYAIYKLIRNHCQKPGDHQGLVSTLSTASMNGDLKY
T1 sequence (Q9HBJ8 15-222 partner): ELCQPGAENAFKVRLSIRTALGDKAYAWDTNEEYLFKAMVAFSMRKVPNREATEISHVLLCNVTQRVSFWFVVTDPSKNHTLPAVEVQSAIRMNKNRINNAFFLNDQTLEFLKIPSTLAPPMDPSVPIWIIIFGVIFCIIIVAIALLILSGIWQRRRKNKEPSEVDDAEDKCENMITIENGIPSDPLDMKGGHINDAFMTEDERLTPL
In short: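 CHO cells were induced with doxycycline for 18 h at 37 °C, washed in HBSS, then exposed to compounds for 1 h: 8-point, 3-fold dilutions in duplicate, 0.5% DMSO final. Uptake measured by scintillation counting after 2 h shaking. Activity normalized with positive control as 0% and DMSO as 100%.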

human SLC6A19 and TMEM27 [2] = target: T1, human SLC6A19 and TMEM27; test: 13C6,15N-isoleucine uptake in CHO cells with doxycycline-inducible expression of human SLC6A19 and TMEM27, RapidFire mass spectrometry (Example B-2); format: cell-based; settings: read-out: SLC6A19_RapidFire Uptake Assay IC50
In short: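 Read-out is RapidFire mass-spec peak area of 13C6,15N-isoleucine taken up over 20 min at 37 °C, after 20 min compound pre-exposure in pH 7.2 HEPES-buffered saline. Cells: doxycycline-induced CHO co-expressing human SLC6A19 and TMEM27; compounds as duplicate 10-point 2-fold dilutions, positive control setting 0% activity.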

Row | SMILES | IC50 (human SLC6A19 and TMEM27 [1]) [nM] | IC50 (human SLC6A19 and TMEM27 [2]) [nM]
1 | CC1(C(=O)NCc2cc3cc(Cl)c(CCn4cccn4)cc3[nH]2)CC1 [Compound 590, N-((6-(2-(1H-pyrazol-1-yl)ethyl)-5-chloro-1H-indol-2-yl)methyl)-1-methylcyclopropane-1-carboxamide] | 145 | 51.8
2 | CNC(=O)NCc1cc2cc(Cl)c(OCc3cc(C)no3)cc2[nH]1 [Compound 211, 1-((5-chloro-6-((3-methylisoxazol-5-yl)methoxy)-1H-indol-2-yl)methyl)-3-methylurea] | 87.7 | 38.1
3 | Cn1ncc(COc2cc3[nH]c(CNC(=O)C4(C)CC4)cc3cc2F)n1 [Compound 496, N-((5-fluoro-6-((2-methyl-2H-1,2,3-triazol-4-yl)methoxy)-1H-indol-2-yl)methyl)-1-methylcyclopropane-1-carboxamide] | 430 | 424
4 | CCC(=O)NCc1cc2cc(C)c(OCc3cscn3)cc2[nH]1 [Compound 529, N-((5-methyl-6-(thiazol-4-ylmethoxy)-1H-indol-2-yl)methyl)propionamide] | 192 | 154
5 | O=C(NCc1cc2cc(Cl)c(OCc3cscn3)cc2[nH]1)C1CC(F)(F)C1 [Compound 495, N-((5-chloro-6-(thiazol-4-ylmethoxy)-1H-indol-2-yl)methyl)-3,3-difluorocyclobutane-1-carboxamide] | 397 | 240
6 | CC1(C(=O)NCc2cc3cc(Cl)c(OCc4ccc(F)nc4)cc3[nH]2)CC1 [Compound 31, N-((5-chloro-6-((6-fluoropyridin-3-yl)methoxy)-1H-indol-2-yl)methyl)-1-methylcyclopropane-1-carboxamide] | 419 | 504
7 | CC1(C(=O)NCc2cc3cc(F)c(OCc4ccon4)cc3[nH]2)CCC1 [Compound 502, N-((5-fluoro-6-(isoxazol-3-ylmethoxy)-1H-indol-2-yl)methyl)-1-methylcyclobutane-1-carboxamide] | 2130 | 1780
8 | CC1(C(=O)NCc2cc3cc(Cl)c(OCc4cnsc4)cc3[nH]2)CC1 [Compound 69, N-((5-chloro-6-(isothiazol-4-ylmethoxy)-1H-indol-2-yl)methyl)-1-methylcyclopropane-1-carboxamide] | 148 | 78
9 | CC1(C(=O)NCc2cc3cc(C(F)(F)F)c(OCc4cscn4)cc3[nH]2)CC1 [Compound 60, 1-methyl-N-((6-(thiazol-4-ylmethoxy)-5-(trifluoromethyl)-1H-indol-2-yl)methyl)cyclopropane-1-carboxamide] | 254 | 71
10 | CC1(C(=O)NCc2cc3cc(Cl)c(OCc4ccc(Cl)s4)cc3[nH]2)CC1 [Compound 320, N-((5-chloro-6-((5-chlorothiophen-2-yl)methoxy)-1H-indol-2-yl)methyl)-1-methylcyclopropane-1-carboxamide] | 1080 | 480
11 | O=C(NCc1cc2cc(F)c(OCc3ccno3)cc2[nH]1)N1CCC1 [Compound 401, N-((5-fluoro-6-(isoxazol-5-ylmethoxy)-1H-indol-2-yl)methyl)azetidine-1-carboxamide] | 342 | 534
12 | CC1(C(=O)NCc2cc3cc(Cl)c(OCC4CCC4)cc3[nH]2)CC1 [Compound 634, N-((5-chloro-6-(cyclobutylmethoxy)-1H-indol-2-y1)methyl)-1-methylcyclopropane-1-carboxamide] | 404 | 168
13 | O=C(NCc1cc2cc(Cl)c(NCc3cscn3)cc2[nH]1)N1CCCC1 [Compound 414, N-((5-chloro-6-((thiazol-4-ylmethyl)amino)-1H-indol-2-yl)methyl)pyrrolidine-1-carboxamide] | 339 | 281
14 | O=C(NCc1cc2cc(F)c(OCc3cscn3)cc2[nH]1)C1(F)CC1 [Compound 230, 1-fluoro-N-((5-fluoro-6-(thiazol-4-ylmethoxy)-1H-indol-2-yl)methyl)cyclopropane-1-carboxamide] | 69.6 | 22.9
15 | O=C(NCc1cc2cc(Cl)c(OCc3ccon3)cc2[nH]1)C1(C(F)(F)F)CC1 [Compound 134, N-((5-chloro-6-(isoxazol-3-ylmethoxy)-1H-indol-2-yl)methyl)-1-(trifluoromethyl)cyclopropane-1-carboxamide] | 187 | 84
16 | O=C(NCc1cc2cc(Cl)c(OCc3cccc(F)n3)cc2[nH]1)C1CC1 [Compound 499, N-((5-chloro-6-((6-fluoropyridin-2-yl)methoxy)-1H-indol-2-yl)methyl)cyclopropanecarboxamide] | 213 | 55.4
17 | CC1(C(=O)NCc2cc3cc(CC(F)(F)F)c(OCc4cscn4)cc3[nH]2)CC1 [Compound 648, 1-methyl-N-((6-(thiazol-4-ylmethoxy)-5-(2,2,2-trifluoroethyl)-1H-indol-2-yl)methyl)cyclopropane-1-carboxamide] | 785 | 344
18 | Cc1nc(COc2cc3[nH]c(CNC(=O)C(C)C)cc3cc2F)co1 [Compound 551, N-((5-fluoro-6-((2-methyloxazol-4-yl)methoxy)-1H-indol-2-yl)methyl)isobutyramide] | 954 | 1760
19 | COc1cc2cc(CNC(=O)C3(C)CC3)[nH]c2cc1CCc1cscn1 [Compound 631, N-((5-methoxy-6-(2-(thiazol-4-yl)ethyl)-1H-indol-2-yl)methyl)-1-methylcyclopropane-1-carboxamide] | 210 | 149
20 | Cc1cc2cc(CNC(=O)N3CCC3)[nH]c2cc1OCc1ccon1 [Compound 532, N-((6-(isoxazol-3-ylmethoxy)-5-methyl-1H-indol-2-yl)methyl)azetidine-1-carboxamide] | 509 | 632
21 | Cc1cc(COc2cc3[nH]c(CNC(=O)N4CCC4)cc3cc2F)on1 [Compound 481, N-((5-fluoro-6-((3-methylisoxazol-5-yl)methoxy)-1H-indol-2-yl)methyl)azetidine-1-carboxamide] | 318 | 297
22 | Cc1ncc(COc2cc3[nH]c(CNC(=O)C4(C)CC4)cc3cc2F)s1 [Compound 13, N-((5-fluoro-6-((2-methylthiazol-5-yl)methoxy)-1H-indol-2-yl)methyl)-1-methylcyclopropane-1-carboxamide] | 637 | 764
23 | CC1(C(=O)NCc2cc3cc(F)c(OCc4cccnc4F)cc3[nH]2)CC1 [Compound 332, N-((5-fluoro-6-((2-fluoropyridin-3-yl)methoxy)-1H-indol-2-yl)methyl)-1-methylcyclopropane-1-carboxamide] | 269 | 187
24 | CC1(C(=O)NCc2cc3cc(F)c(NCc4cscn4)cc3[nH]2)CC1 [Compound 523, N-((5-fluoro-6-((thiazol-4-ylmethyl)amino)-1H-indol-2-yl)methyl)-1-methylcyclopropane-1-carboxamide] | 208 | 239
25 | O=C(NCc1cc2cc(Cl)c(OCc3cscn3)cc2[nH]1)N1CCCC1 [Compound 82, N-((5-chloro-6-(thiazol-4-ylmethoxy)-1H-indol-2-yl)methyl)pyrrolidine-1-carboxamide] | 149 | 45
26 | CC1(C(=O)NCc2cc3cc(C4CC4)c(OCc4ccon4)cc3[nH]2)CC1 [Compound 342, N-((5-cyclopropyl-6-(isoxazol-3-ylmethoxy)-1H-indol-2-yl)methyl)-1-methylcyclopropane-1-carboxamide] | 258 | 215
27 | CCC(=O)NCc1cc2cc(F)c(OCc3cscn3)cc2[nH]1 [Compound 126, N-((5-fluoro-6-(thiazol-4-ylmethoxy)-1H-indol-2-yl)methyl)propionamide] | 97 | 171
28 | CC1(C(=O)NCc2cc3ccc(OCCc4ccon4)cc3[nH]2)CC1 [Compound 190, N-((6-(2-(isoxazol-3-yl)ethoxy)-1H-indol-2-yl)methyl)-1-methylcyclopropane-1-carboxamide] | 185 | 294
29 | CCC(=O)NCc1cc2cc(Cl)c(OCc3cccc(F)n3)cc2[nH]1 [Compound 494, N-((5-chloro-6-((6-fluoropyridin-2-yl)methoxy)-1H-indol-2-yl)methyl)propionamide] | 148 | 35.7

— patent US20240199546A1, “INHIBITORS OF SOLUTE CARRIER FAMILY 6A MEMBER 19 (SLC6A19) AND METHODS OF USE THEREOF” (Maze Therapeutics, Inc., priority 2022, published 2024)
